Source: patent EP1044000B1, “COMBINATION THERAPY FOR THE TREATMENT OF AIDS” (MERCK & CO., INC., priority 1997, dated 1999)
Where two headings read alike, the source gives them in different places.

Test: Pharmacokinetic study of Compound A alone and in combination with Indinavir in healthy human males (Example 11)
Assay type: in vivo
Details: for Cmax / Tmax / AUC / concentration at 8 h / concentration at 12 h / concentration at 24 h: male, human, plasma, po, fasted; for Cmax / Tmax: arithmetic mean; for AUC: arithmetic mean (CV %); for concentration at 8 h: plasma 8 hours after dosing, read-out: C8 hrs; for concentration at 12 h: plasma 12 hours after dosing, read-out: C12 rs; for concentration at 24 h: plasma 24 hours after dosing, read-out: C24 hrs
Procedure: A double-blind, single-rising dose, alternating two-panel, four-period, placebo-controlled study was conducted for Compound A alone and in combination with Indinavir in healthy adult males in the fasted state. […] All of the doses of Compound A were administered as the sulfate salt form of Compound A. All of the Compound A doses were oral suspensions of the sulfate salt form in sterile water, except that the 600-mg doses administered to Panel B in the fourth period were tablets. Indinavir was administered in the form of CRIXIVAN® capsules. The safety of the subjects was monitored prior and subsequent to dosing by clinical adverse event reporting, measurement of vital signs, physical examinations, blood and urine laboratory safety tests, and ECGs. Plasma concentrations of Compound A were determined predose and at 0.5, 1, 1.5, 2, 3, 4, 6, 8, 12, 16, 20, 24, 30, 36 and 48 hours following each single dose in each period, using a reverse-phase HPLC column switching method with fluorescence detection.

[1] = 200 mg of Compound A with 800 mg of Indinavir relative to 200 mg of Compound A alone (Table 3 vs Table 2)
[2] = 200 mg Compound A + 800 mg IDV (Indinavir) co-administered, single oral dose, n=6
[3] = 200 mg Compound A + 1200 mg IDV (Indinavir) co-administered, single oral dose, n=6
[4] = 400 mg Compound A + 800 mg IDV (Indinavir) co-administered, single oral dose, n=6
[5] = 600 mg Compound A + 800 mg IDV (Indinavir) co-administered, single oral dose, n=8
[6] = 600 mg, 600 mg (tablets) single oral dose, sulfate salt, n=8
[7] = 600 mg, 600 mg single oral dose, suspension of sulfate salt, n=8
[8] = 1600 mg, 1600 mg single oral dose, suspension of sulfate salt, n=6
[9] = 2000 mg, 2000 mg single oral dose, suspension of sulfate salt, n=8

AUC of Compound A higher for co-administration with Indinavir relative to Compound A alone [1]: about 30 x
C8 hrs higher for co-administration with Indinavir relative to Compound A alone [1]: ~46 x
Cmax higher for co-administration with Indinavir relative to Compound A alone [1]: about 19 x
AUC higher than for administration of Compound A alone (600 mg of Compound A in combination with 800 mg of Indinavir versus Compound A alone): about 18 fold
Cmax [2]: 1580 nM
Tmax [2]: 2.2 h
AUC [2]: 7.45 µM·h
concentration at 8 h [2]: 232 nM
concentration at 12 h [2]: 70 nM
concentration at 24 h [2]: 8 nM
Cmax [3]: 1560 nM
Tmax [3]: 2.3 h
AUC [3]: 9.22 µM·h
concentration at 8 h [3]: 416 nM
concentration at 12 h [3]: 107 nM
concentration at 24 h [3]: 10 nM
Cmax [4]: 2350 nM
Tmax [4]: 2.5 h
AUC [4]: 12.2 µM·h
concentration at 8 h [4]: 399 nM
concentration at 12 h [4]: 124 nM
concentration at 24 h [4]: 20 nM
Cmax [5]: 3880 nM
Tmax [5]: 3.3 h
AUC [5]: 25.2 µM·h
concentration at 8 h [5]: 1190 nM
concentration at 12 h [5]: 352 nM
concentration at 24 h [5]: 65 nM
Cmax [6]: 211 nM
Tmax [6]: 1.5 h
AUC [6]: 1.42 µM·h
concentration at 8 h [6]: 50 nM
concentration at 12 h [6]: 38 nM
concentration at 24 h [6]: 17 nM
Cmax [7]: 208 nM
Tmax [7]: 1.4 h
AUC [7]: 1.41 µM·h
concentration at 8 h [7]: 55 nM
concentration at 12 h [7]: 39 nM
concentration at 24 h [7]: 13 nM
Cmax [8]: 613 nM
Tmax [8]: 2 h
AUC [8]: 4.72 µM·h
concentration at 8 h [8]: 163 nM
concentration at 12 h [8]: 93 nM
concentration at 24 h [8]: 46 nM
Cmax [9]: 1270 nM
Tmax [9]: 2.5 h
AUC [9]: 10.4 µM·h
concentration at 8 h [9]: 444 nM
concentration at 12 h [9]: 250 nM
concentration at 24 h [9]: 105 nM
Structure (SMILES): CC(C)(C)NC(=O)[C@@H]1CN(Cc2cc3ccccc3o2)CCN1C[C@@H](O)C[C@@H](Cc1ccccc1)C(=O)N[C@H]1c2ccccc2C[C@H]1O [Compound A, N-(2(R)-hydroxy-1(S)-indanyl)-2(R)-phenylmethyl-4-(S)-hydroxy-5-(1-(4-(2-benzo[b]furanylmethyl)-2(S)-N'-(t-butylcarboxamido)-piperazinyl))-pentaneamide]
